Laboratory results as given in article PMC8400920, “Metabolism of Diterpenoids Derived from the Bark of Cinnamomum cassia in Human Liver Microsomes” (Pharmaceutics, 2021).

Assays:
[1] = test system: human liver microsomes (HLMs); assay: Identification of phase I metabolites of AHC in HLMs; assay type: in vitro ADME; conditions: 10 µM AHC, 1 mg/mL pooled HLMs, with NGS, 60 min
Experimental: To identify AHC metabolites, 10 µM AHC was incubated with 1 mg/mL pooled HLMs in 0.1 M potassium phosphate buffer (pH 7.4) at 37 °C for 60 min. The reactions were initiated by adding NGS to obtain a final incubation volume of 200 µL. All experiments were conducted in triplicate. The reaction was terminated by adding 400 µL of 100% ACN, and the mixture was vortexed and then centrifuged for 10 min at 15,700× g. Next, the supernatant (550 µL) was transferred to a new tube and dried using a speed-vac concentrator with a cold trap (Labconco, Kansas, MO, USA). Subsequently, the dried samples were reconstituted in 100 µL of 20% MeOH containing 0.1% formic acid before centrifugation at 15,700× g for 10 min. Finally, the mixture was injected into a liquid chromatograph with a tandem mass spectrometer for analysis. […]
The mobile phase consisted of 100% water with 0.1% formic acid (mobile phase A) and 100% ACN with 0.1% formic acid (mobile phase B). […] Data were analyzed using Xcalibur version 4.0 software (Thermo Fisher Scientific, Waltham, MA, USA).
To identify the phase I metabolites of AHC in HLMs, 10 µM AHC was incubated in pooled HLMs without or with the NGS for 60 min. […] The extracted ion chromatograms of the generated AHC metabolites are shown in Figure 2A,B. AHC was detected as a deprotonated ion, [M − H]^−, at m/z 407 and 15.6 min in the negative ion mode. […]

[2] = biological target: T1, CYP1A2 (Homo sapiens, UniProt P05177); assay: AHC metabolism by recombinant cDNA-expressed CYP isoform; assay type: in vitro ADME; conditions: 10 µM AHC, 10 pmol recombinant CYP, NGS, 37 °C, 60 min
T1 construct: purchased Corning Gentest
T1 sequence (P05177 1-516): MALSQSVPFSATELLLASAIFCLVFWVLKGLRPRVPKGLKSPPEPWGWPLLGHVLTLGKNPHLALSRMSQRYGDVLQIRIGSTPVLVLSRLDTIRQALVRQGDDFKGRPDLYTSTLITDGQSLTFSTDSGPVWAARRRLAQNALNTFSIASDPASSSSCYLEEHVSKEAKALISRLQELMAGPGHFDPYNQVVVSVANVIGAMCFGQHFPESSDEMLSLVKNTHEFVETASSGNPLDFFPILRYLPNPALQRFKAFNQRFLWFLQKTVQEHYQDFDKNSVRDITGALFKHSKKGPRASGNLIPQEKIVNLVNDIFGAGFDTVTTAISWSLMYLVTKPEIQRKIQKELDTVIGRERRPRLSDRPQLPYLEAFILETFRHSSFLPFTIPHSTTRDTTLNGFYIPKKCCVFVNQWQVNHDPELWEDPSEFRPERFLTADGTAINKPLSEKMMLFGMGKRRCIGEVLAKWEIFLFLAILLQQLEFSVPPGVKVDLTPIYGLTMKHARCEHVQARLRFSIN
Experimental: To identify the metabolic enzymes for AHC, 10 µM AHC was incubated with 10 pmol of human recombinant cDNA-expressed CYP isoforms (CYP1A1, 1A2, 2A6, 2B6, 2C8, 2C9, 2C19, 2D6, 2E1, 3A4, and 3A5) in the presence of 0.1 M potassium phosphate buffer (pH 7.4). The reaction was initiated by adding 100 µL of NGS at 37 °C for 60 min. Then, the mixture was suspended by adding 400 µL of ice-cold 100% ACN. Following centrifugation at 15,700× g for 10 min at 4 °C, the supernatant was transferred to a new tube and evaporated using a speed-vacuum concentrator. Next, the dried sample was diluted with 100 µL of 20% MeOH containing 0.1% formic acid, and a 5 µL aliquot was injected into a C18 column for LC–MS/MS analysis.
To identify the CYP isoforms involved in AHC metabolism, AHC (10 µM) was incubated with eleven cDNA-expressed recombinant CYP isoforms (CYP1A1, CYP1A2, CYP2A6, CYP2B6, CYP2C8, CYP2C9, CYP2C19, CYP2D6, CYP2E1, CYP3A4, and CYP3A5) in the presence of the NGS. […] However, the metabolites of AHC were not observed from reactions with other CYPs. Thus, in the metabolism of AHC in HLMs, CYP3A4 was involved as the main enzyme, and four types of metabolites were generated.

CC(=O)O[C@@H]1[C@@H](C)CC[C@]2(O)[C@]3(C)CC(=O)O[C@]12[C@@]1(O)C(C)=C(C(C)C)C[C@@]31O [AHC, anhydrocinnzeylanine]
number of metabolites produced in HLMs [1]: 20
metabolites of AHC from reaction with CYP1A2 [2]: not observed
